Measurements reported in ChEMBL document CHEMBL1201862, “PubChem BioAssay data set” (2004).
The source made the active and inactive calls.

Assays:
[1] = target: T1, Short transient receptor potential channel 4 (Mus musculus, UniProt Q9QUQ5); test: mouse TRPC4 channel activators, dose response, cell-based, HEK293 TRPC4/mu-opioid, Fluo-4 calcium (AID 434937); type: functional
T1 sequence (Q9QUQ5 whole entry): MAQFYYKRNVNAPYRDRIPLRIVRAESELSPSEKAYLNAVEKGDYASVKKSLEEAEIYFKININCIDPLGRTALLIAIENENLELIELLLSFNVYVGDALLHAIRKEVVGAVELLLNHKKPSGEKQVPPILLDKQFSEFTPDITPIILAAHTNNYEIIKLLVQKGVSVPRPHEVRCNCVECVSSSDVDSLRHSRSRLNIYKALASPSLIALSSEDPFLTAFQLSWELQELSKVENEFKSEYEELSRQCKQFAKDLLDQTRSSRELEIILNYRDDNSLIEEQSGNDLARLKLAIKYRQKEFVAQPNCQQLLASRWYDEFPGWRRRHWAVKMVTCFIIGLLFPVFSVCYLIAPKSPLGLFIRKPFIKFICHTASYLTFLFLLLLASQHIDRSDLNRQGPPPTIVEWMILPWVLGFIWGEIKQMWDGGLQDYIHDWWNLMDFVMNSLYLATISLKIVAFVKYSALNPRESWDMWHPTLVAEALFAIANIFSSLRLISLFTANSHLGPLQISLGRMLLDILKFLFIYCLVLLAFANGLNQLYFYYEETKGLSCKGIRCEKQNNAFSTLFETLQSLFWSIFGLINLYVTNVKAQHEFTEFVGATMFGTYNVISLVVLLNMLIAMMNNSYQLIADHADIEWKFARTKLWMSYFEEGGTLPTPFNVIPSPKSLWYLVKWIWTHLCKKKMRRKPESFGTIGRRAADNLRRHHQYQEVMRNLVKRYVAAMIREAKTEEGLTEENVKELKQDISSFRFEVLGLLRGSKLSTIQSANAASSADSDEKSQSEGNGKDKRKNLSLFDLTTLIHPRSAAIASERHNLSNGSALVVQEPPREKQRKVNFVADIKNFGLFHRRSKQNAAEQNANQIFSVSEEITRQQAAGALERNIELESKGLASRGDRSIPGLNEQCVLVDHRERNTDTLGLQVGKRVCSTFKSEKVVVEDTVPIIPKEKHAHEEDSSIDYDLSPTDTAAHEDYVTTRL

[2] = target: T2, Coagulation factor XII (Homo sapiens, UniProt P00748); type: functional;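 also: activated factor XIIa alpha cleaving a fluorogenic AMC peptide substrate; inhibitor potency from loss of enzyme activity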
T2 sequence (P00748 whole entry): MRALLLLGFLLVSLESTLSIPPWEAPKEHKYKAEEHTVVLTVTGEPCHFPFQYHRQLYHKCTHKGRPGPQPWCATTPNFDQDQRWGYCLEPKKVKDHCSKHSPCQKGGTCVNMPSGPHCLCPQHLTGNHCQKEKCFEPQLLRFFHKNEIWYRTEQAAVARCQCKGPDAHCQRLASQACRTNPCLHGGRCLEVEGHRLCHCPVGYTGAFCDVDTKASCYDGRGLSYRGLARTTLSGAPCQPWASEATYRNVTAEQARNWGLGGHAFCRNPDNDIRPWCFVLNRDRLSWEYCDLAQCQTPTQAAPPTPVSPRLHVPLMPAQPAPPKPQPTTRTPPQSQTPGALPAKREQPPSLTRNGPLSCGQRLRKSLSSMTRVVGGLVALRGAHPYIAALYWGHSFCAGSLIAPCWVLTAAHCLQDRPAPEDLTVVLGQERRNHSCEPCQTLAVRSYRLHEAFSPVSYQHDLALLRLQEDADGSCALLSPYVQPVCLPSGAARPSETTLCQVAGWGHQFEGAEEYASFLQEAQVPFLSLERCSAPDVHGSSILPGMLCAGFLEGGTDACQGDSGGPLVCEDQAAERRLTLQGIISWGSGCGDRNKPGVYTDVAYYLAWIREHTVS

[3] = ZM109 Env clade C HIV-1 fusion inhibitors, dose response, HeLa effector, CEM target cells, luciferase, cherry-pick (AID 652058); type: functional, cell-based
[4] = off-target signal loss in HeLa-CEM21 co-culture – HeLa F-luc CTL cells, cherry-picked, counter-screen for HIV-1 Env fusion inhibitor project, dose response (AID 652040); type: functional, cell-based;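 also: potency for signal decrease marking cytotoxic or nonspecific inhibition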
[5] = tested on: BJ; test: cytotoxicity toward BJ-TERT-LT-ST fibroblasts, dose response, cell-based, RAS-independent, luminescence (AID 1935); type: functional; conditions: Homo sapiens;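 also: BJ fibroblasts immortalized with TERT plus LT and ST oncogenes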
[6] = target: Luciferin 4-monooxygenase (Photinus pyralis, UniProt P08659); test: firefly luciferase enzyme inhibitors, dose response, biochemical, luminescence (AID 1891)
[7] = cytotoxicity in HEK-293T cells, dose response, cytotoxicity control for TCR NF-kB inhibitor project, luminescence, T-cell screen hits (AID 489026); type: functional, cell-based;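 also: cells exposed to compound about 14 hours before the viability readout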
[8] = tested on: BJ; test: cells; type: functional, cell-based; conditions: Homo sapiens
[9] = Luminescence Cell-Based Dose Confirmation HTS to Identify Inhibitors of Platelet Dense Granule Release. [Related pubchem assays: 1663 (Primary HTS), 1678 (Summary of Project)]; type: functional
[10] = cytotoxicity toward DRD oncogenic fibroblasts, dose response, cell-based, non-viral oncogenic, luminescence (AID 1934); type: functional; conditions: Homo sapiens
[11] = non-specific cell cytotoxicity, dose response, cytotoxicity control for PAX8 inhibitor project, plate reader, dry powder samples (AID 743021); type: functional, cell-based
[12] = target: Paired box protein Pax-8 (Homo sapiens, UniProt Q06710); test: inhibitors of PAX8-driven TPO luciferase reporter, dose response, RMG-I cells, cherry-pick (AID 687027); type: functional, cell-based;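 also: luciferase reporter driven by Pax8 target thyroperoxidase promoter measured by SteadyGlo luminescence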
Paired box protein Pax-8, sequence (Q06710 whole entry, the tested form may be a part): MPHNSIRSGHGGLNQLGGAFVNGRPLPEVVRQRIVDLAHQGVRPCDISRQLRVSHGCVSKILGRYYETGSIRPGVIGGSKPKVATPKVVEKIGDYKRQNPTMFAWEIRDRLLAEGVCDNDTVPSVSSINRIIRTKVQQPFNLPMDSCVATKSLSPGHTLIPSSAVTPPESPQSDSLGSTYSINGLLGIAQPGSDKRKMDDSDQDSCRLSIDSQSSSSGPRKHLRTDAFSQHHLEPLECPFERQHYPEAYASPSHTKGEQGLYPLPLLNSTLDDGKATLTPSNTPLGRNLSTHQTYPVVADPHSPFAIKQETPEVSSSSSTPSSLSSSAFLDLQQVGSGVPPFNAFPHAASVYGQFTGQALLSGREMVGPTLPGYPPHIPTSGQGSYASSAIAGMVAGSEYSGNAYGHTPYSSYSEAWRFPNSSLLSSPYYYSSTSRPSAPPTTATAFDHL

[13] = CEM21 lymphoblast cell cytotoxicity, dose response, cytotoxicity control for viral fusion inhibitor project, CellTiter-Glo luminescence, cherry-picked (AID 652042); type: functional, cell-based;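 also: potency for signal decrease meaning cytotoxicity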
[14] = tested on: BJ; test: cytotoxicity toward BJ-TERT fibroblasts, dose response, cell-based, RAS-independent, luminescence (AID 1933); type: functional; conditions: Homo sapiens
[15] = inhibitors of clade B AD8 Env fusion, dose response, cell-based, cherry-pick (AID 652062); type: functional;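 also: luciferase signal from cell-cell fusion driven by HIV-1 clade B AD8 Env; potency is for inhibitors of fusion seen as a drop in luminescence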
[16] = inhibitors of HIV Env-driven cell fusion, dose response, cherry-pick (AID 652057); type: functional, cell-based
[17] = target: Beta-galactosidase (Escherichia coli, UniProt Q8VNN2); test: Dose response counterscreen for EBI2 assay utilizing the enzyme, b-galactosidase.; type: functional
Beta-galactosidase, sequence (Q8VNN2 whole entry): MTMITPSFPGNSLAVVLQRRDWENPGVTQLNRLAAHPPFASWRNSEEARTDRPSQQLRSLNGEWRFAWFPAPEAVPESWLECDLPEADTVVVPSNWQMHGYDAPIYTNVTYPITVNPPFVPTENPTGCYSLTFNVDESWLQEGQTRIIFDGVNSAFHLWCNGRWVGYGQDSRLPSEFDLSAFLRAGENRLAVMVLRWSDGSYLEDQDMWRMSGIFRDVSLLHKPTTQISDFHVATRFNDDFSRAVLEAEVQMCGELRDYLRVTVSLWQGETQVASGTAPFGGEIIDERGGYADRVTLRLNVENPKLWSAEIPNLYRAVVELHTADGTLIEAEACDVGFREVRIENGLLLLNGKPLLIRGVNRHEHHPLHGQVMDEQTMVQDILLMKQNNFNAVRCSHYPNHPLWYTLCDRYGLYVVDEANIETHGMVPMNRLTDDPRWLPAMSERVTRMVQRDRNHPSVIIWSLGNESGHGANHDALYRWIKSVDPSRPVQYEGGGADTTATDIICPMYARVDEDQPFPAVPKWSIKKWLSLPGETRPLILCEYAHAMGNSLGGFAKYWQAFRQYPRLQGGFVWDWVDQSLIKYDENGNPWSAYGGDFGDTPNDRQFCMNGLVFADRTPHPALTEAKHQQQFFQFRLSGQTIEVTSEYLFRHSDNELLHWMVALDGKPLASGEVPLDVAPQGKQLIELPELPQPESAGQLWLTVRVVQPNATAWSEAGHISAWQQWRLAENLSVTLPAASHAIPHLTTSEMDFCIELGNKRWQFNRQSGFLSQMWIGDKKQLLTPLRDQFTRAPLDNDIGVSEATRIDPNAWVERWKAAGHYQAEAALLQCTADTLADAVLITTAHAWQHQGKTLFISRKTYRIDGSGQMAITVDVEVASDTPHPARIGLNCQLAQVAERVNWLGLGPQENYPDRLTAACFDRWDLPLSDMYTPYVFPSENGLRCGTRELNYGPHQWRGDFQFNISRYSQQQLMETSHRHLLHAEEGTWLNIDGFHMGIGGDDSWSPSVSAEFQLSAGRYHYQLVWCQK

[18] = target: T3, X-box-binding protein 1 (Homo sapiens, UniProt P17861); type: functional, Cricetulus griseus;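 also: confirmatory dose-response counter-screen serving a CHOP assay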
T3 sequence (P17861 whole entry): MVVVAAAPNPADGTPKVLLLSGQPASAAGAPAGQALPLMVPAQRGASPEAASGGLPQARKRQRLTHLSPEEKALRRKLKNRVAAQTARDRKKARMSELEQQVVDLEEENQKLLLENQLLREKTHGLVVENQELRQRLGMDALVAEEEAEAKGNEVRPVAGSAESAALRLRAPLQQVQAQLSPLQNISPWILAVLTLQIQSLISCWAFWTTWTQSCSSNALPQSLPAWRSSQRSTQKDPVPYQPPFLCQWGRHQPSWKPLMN

[19] = target: T4, Voltage-gated N-type calcium channel alpha-1B subunit/Amyloid beta A4 precursor protein-binding family A member 1 (Homo sapiens, UniProt Q00975+Q02410); type: protein assay
T4 sequence (Q00975 whole entry): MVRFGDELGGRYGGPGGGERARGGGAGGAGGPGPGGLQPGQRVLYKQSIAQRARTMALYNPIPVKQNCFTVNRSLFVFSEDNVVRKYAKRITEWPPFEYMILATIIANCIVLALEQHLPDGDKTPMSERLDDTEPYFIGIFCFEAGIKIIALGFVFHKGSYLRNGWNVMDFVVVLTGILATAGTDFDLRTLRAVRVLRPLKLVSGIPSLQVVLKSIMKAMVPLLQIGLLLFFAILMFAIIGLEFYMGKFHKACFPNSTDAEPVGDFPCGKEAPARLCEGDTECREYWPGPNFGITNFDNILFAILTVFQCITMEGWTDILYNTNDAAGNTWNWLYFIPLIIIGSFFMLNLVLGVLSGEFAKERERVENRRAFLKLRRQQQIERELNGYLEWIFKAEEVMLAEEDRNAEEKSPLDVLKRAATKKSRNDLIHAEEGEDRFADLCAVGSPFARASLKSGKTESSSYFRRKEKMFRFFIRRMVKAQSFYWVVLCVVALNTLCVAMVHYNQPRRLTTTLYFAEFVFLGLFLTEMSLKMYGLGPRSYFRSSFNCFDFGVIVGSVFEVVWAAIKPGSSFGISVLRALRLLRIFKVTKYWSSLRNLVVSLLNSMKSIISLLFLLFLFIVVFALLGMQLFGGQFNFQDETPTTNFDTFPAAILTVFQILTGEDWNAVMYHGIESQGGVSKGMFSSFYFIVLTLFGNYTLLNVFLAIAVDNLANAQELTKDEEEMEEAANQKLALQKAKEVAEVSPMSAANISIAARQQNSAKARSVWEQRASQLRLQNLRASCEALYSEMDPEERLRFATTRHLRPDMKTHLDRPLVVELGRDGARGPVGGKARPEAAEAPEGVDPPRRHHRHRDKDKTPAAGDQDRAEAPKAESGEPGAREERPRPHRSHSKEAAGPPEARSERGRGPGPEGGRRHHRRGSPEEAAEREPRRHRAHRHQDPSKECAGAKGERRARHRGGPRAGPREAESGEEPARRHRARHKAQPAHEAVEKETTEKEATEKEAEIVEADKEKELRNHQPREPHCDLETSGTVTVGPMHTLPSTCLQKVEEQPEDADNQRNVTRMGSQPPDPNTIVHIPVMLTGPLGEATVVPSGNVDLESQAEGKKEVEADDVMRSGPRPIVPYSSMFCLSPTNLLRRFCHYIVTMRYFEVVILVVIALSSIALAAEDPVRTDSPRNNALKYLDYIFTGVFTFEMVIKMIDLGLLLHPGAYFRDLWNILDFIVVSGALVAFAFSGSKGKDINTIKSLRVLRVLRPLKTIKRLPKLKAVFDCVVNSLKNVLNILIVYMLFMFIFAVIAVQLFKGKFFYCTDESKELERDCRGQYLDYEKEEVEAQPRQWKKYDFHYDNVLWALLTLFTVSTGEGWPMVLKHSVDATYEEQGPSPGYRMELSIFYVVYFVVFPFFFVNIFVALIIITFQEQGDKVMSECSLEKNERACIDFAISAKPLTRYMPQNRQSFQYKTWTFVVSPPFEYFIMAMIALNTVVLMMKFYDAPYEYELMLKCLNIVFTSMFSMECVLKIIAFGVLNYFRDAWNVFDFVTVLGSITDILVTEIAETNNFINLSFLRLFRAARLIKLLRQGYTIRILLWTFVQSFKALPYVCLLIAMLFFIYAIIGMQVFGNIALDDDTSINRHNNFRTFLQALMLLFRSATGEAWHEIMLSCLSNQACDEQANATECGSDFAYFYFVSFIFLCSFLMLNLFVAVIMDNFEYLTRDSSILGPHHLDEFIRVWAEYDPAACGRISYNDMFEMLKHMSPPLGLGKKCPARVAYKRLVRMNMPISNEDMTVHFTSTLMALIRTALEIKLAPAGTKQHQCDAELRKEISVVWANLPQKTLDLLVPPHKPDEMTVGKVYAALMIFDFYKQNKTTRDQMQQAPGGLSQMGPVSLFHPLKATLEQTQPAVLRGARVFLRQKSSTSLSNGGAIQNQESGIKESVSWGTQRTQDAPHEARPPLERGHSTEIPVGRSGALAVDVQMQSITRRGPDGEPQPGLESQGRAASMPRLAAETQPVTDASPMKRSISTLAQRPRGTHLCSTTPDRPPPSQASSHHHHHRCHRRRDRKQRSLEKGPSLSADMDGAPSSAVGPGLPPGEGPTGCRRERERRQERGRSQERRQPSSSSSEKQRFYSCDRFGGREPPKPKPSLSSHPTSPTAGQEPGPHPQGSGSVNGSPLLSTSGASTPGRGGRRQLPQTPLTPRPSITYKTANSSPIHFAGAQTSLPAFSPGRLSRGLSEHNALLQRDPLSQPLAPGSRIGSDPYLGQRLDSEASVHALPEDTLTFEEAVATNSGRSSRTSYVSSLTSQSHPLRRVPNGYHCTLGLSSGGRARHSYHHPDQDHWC
T4 sequence (Q02410 whole entry): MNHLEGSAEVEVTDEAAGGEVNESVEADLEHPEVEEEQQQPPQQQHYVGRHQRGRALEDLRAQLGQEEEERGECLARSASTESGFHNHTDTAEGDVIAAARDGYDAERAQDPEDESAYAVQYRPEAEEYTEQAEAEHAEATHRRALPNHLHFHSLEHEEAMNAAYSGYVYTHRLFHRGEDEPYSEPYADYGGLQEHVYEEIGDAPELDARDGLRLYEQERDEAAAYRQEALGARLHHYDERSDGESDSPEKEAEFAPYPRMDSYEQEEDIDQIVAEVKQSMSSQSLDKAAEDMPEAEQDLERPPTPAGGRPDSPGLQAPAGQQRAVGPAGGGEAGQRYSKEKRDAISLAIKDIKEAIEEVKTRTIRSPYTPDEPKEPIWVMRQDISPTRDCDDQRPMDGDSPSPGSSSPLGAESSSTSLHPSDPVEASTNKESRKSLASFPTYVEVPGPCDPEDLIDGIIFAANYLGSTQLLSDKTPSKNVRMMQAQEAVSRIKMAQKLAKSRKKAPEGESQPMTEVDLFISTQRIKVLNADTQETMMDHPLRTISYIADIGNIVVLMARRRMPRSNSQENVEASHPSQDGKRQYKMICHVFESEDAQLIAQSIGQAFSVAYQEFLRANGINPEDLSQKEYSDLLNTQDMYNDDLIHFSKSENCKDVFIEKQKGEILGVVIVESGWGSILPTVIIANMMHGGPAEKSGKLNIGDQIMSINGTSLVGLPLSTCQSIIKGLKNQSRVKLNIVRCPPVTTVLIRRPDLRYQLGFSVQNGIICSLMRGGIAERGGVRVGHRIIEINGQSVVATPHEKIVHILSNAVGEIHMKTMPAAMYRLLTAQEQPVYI

[20] = target: T5, Mannose-6-phosphate isomerase (Homo sapiens, UniProt P34949); test: human PMI inhibitors, high substrate, primary screen, biochemical, fluorescence intensity, high mannose 6-phosphate (AID 1220)
T5 sequence (P34949 whole entry): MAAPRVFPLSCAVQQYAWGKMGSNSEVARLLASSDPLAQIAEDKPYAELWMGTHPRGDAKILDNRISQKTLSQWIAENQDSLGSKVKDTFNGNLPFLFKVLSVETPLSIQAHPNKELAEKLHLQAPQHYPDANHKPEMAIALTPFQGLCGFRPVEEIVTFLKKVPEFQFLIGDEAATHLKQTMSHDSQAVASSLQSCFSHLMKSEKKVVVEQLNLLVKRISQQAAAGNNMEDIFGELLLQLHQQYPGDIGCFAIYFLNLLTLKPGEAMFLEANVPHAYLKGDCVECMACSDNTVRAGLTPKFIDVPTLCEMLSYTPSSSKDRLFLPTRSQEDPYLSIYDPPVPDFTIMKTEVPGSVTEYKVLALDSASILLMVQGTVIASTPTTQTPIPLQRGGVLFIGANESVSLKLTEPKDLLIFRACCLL

[21] = target: T6, Rac GTPase-activating protein 1 (Homo sapiens, UniProt Q9H0H5); test: MgcRacGAP GTPase-activating activity inhibitors, confirmation, biochemical, ADP Hunter fluorescence, primary and confirmatory (AID 624330); type: functional
T6 sequence (Q9H0H5 whole entry): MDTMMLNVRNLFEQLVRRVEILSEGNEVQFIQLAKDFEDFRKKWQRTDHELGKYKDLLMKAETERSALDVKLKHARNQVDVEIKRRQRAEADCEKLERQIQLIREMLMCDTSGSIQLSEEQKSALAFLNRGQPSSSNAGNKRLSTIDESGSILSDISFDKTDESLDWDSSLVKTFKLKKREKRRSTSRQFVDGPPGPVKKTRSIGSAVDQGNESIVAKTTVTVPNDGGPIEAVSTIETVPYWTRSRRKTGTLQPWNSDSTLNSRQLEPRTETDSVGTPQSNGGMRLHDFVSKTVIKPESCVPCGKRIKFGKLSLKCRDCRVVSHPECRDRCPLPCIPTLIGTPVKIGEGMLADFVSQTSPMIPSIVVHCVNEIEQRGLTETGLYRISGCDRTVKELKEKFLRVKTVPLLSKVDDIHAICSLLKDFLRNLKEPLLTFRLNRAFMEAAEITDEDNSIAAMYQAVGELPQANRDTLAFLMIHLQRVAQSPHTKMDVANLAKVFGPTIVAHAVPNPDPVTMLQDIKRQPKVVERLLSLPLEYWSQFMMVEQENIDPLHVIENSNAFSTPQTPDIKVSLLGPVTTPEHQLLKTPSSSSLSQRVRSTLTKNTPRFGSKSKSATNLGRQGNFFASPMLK

[22] = target: Heat shock protein HSP 90-alpha (Homo sapiens, UniProt P07900); type: functional, organism-based
[23] = target: T7, Phosphomannomutase 2 (Homo sapiens, UniProt O15305); test: Counter screen SAR assay for PMM2 inhibitors via a fluorescence intensity assay. [Related pubchem assays (depositor defined):AID1545, AID1574]
T7 sequence (O15305 whole entry): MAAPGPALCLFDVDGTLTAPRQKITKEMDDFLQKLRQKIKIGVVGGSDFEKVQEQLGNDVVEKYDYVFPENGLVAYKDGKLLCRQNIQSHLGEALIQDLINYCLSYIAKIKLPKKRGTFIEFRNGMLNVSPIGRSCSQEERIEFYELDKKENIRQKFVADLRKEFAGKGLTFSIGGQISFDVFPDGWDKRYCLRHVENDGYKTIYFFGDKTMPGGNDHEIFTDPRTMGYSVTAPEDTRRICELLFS

[24] = target: T5, Mannose-6-phosphate isomerase; test: PMI enzyme inhibitors, confirmation, biochemical, fluorescence intensity (AID 1535)
[25] = target: T4, Voltage-gated N-type calcium channel alpha-1B subunit/Amyloid beta A4 precursor protein-binding family A member 1; type: protein assay; remark: listed apart in the source
[26] = target: Eukaryotic translation initiation factor 4E (Mus musculus, UniProt P63073); test: eIF4E–eIF4G protein interaction inhibitors, dose response, biochemical, TR-FRET (AID 855); type: functional;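 also: potency for disrupting eIF4E binding to eIF4GI seen as loss of FRET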
Eukaryotic translation initiation factor 4E, sequence (P63073 whole entry): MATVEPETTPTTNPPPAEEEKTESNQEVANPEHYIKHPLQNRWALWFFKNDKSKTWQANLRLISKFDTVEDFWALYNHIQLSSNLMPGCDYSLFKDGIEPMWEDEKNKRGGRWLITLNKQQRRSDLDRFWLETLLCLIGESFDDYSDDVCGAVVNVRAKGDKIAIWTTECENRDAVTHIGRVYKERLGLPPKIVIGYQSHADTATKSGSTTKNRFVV

[27] = HeLa cell cytotoxicity, dose response, cytotoxicity control for MgcRacGAP inhibitor project (AID 624300); type: functional

In the case of CCCn1ncc(CN2CCC(n3nccc3NC(=O)CCc3ccccc3)CC2)c1C, the EC50 [1] is reported as 0.024 µM (active).
With CN(C)CCNC(=O)c1scc2c1CCCC2 the EC50 [1] was 3.35 µM (active).
In the case of CCOC(=O)CNC(=O)Cc1ccc(OC)cc1, the IC50 [2] is reported as > 50 µM (inactive).
For O=C(O)c1ccc(N/N=C/c2ccc3c(c2)OCO3)cc1, the AC50 [3] was 9.48 µM (active), the AC50 [4] was 4.15 µM (active) and the EC50 [5] was 24.2 µM (active). The EC50 [6] was < 0.088 µM (active), the IC50 [7] was > 80 µM (inactive) and the EC50 [8] was 8.37 µM (active). For the same molecule, the EC50 [9] was < 0.088 µM (active), the EC50 [10] was 8.19 µM (active) and the AC50 [11] was 27.7 µM (active). The AC50 [12] was 3.04 µM (active), the AC50 [13] was 36.6 µM (active) and the EC50 [14] was 13.1 µM (active). The AC50 [15] was 5.24 µM (active) and the AC50 [16] was 2.44 µM (active).
For CCOC(=O)c1ccccc1NC(=O)Cn1c(-c2nonc2N)nc2ccccc21, the IC50 [7] was > 80 µM (inactive).
In the case of CN(CCc1ccccn1)C(=O)CC1C(=O)NCCN1Cc1ccc(-c2ccccc2)cc1 (configuration not stated), the EC50 [1] is reported as 3.76 µM (active).
With CCn1c(SCC(=O)Nc2cccnc2Cl)nnc1-c1ccccc1 the IC50 [2] was > 50 µM (inactive).
With COc1ccc(Nc2nc(-c3sc(C)nc3C)cs2)cc1 the IC50 [7] was 49.6 µM (inactive) and the IC50 [17] was > 80 µM (inactive).
With Clc1nss/c1=N\c1ccc(Br)cc1 the “Absolute IC50 (XBP1)” value [18] was less than 10 µM, the IC50 [19] was 4.16 µM (active) and the IC50 [20] was > 50 µM (not active). For the same molecule, the IC50 [21] was 37.5 µM (active), the AC50 [22] was 24.4 µM (active) and the IC50 [23] was > 100 µM (inactive). For the same molecule, the IC50 [24] was 7.28 µM (active), the IC50 [25] was 11.6 µM (active) and the IC50 [26] was 50 µM (inactive). For the same molecule, the CC50 [27] was 100 µM (active).
